Source: patent publication US8524740B2, “Synthesis and anticancer activity of aryl and heteroaryl-quinolin derivatives” (Tairx, Inc., priority 2010, dated 2013)
One block for each molecule: values may come before it.

Tests used:
HL-60 = assay: MTT assay, HL-60 cells; assay type: cell-based; conditions: Homo sapiens
Protocol: (§1) MTT (3-(4,5-Dimethylthiazol-2-yl)-2,5-diphenyltetrazolium bromide) assays.^21,22 HL-60, HCT-116, Hep 3B, H460, Detroit 551 and HT29/FuR cells were treated with tested compounds for the indicated periods. After treatment, cells were washed once with PBS and incubated with MTT (Sigma, St. Louis, Mo., USA) for 2 h. The formazan precipitate was dissolved in 150 μL of DMSO, and the absorbance was measured with an ELISA reader at 570 nm.
(§2) HL-60, Hep 3B, H460, MES-SA, MES-SAID x5 and Detroit 551 cells were treated with vehicle or test compounds for 48 h. The cell growth rate was determined by MTT (3-(4,5-dimethyl-thiazol-2-yl)-2,5-diphenyltetrazoliun bromide) reduction assay.
as §1, with “assays.” for “assays.^21,22”, “HCT-116, A549,” for “HCT-116,”, “KB, Kb-VIN” for “H460, Detroit 551”, “DU145” for “HT29/FuR”
as §1, with “assays.” for “assays.^21,22”, “HL-60,” for “HL-60, HCT-116,”, “H460, A498, Colo205 and” for “H460,”, “551” for “551 and HT29/FuR”

HCT116 = assay: MTT assay, HCT-116 cells; assay type: cell-based; conditions: Homo sapiens
Protocol: as §1
as §1, with “assays.” for “assays.^21,22”, “HCT-116, A549,” for “HCT-116,”, “KB, Kb-VIN” for “H460, Detroit 551”, “DU145” for “HT29/FuR”

[1] = oral and intravenous administration (CHM-2133-P); cited from earlier work
Detroit 551 = assay: MTT assay, Detroit 551 normal human cells; assay type: cell-based; conditions: Detroit 551
Protocol: as §1, §2
as §1, with “assays.” for “assays.^21,22”, “HL-60,” for “HL-60, HCT-116,”, “H460, A498, Colo205 and” for “H460,”, “551” for “551 and HT29/FuR”

Hep3B = assay: MTT assay, Hep 3B cells; assay type: cell-based; conditions: Homo sapiens
Protocol: as §1, §2
as §1, with “assays.” for “assays.^21,22”, “HCT-116, A549,” for “HCT-116,”, “KB, Kb-VIN” for “H460, Detroit 551”, “DU145” for “HT29/FuR”
as §1, with “assays.” for “assays.^21,22”, “HL-60,” for “HL-60, HCT-116,”, “H460, A498, Colo205 and” for “H460,”, “551” for “551 and HT29/FuR”

H460 = assay: MTT assay, H460 cells; assay type: cell-based; conditions: Homo sapiens, NCI-H460
Protocol: as §1, §2
as §1, with “assays.” for “assays.^21,22”, “HL-60,” for “HL-60, HCT-116,”, “H460, A498, Colo205 and” for “H460,”, “551” for “551 and HT29/FuR”

[2] = tested on: Hep-3B human hepatocellular carcinoma xenograft; assay: In vivo antitumor activity assay, Hep3B xenograft nude mice; parameters: species or system Balb/c Nude mice; conditions: for Hep3B tumor growth suppression compared with doxorubicin: 7.5 mg/kg/day p.o., doxorubicin 10 mg/kg p.o.; for antitumor activity by i.v. route compared with p.o. route: i.v., 7.5, 15, 30 mg/kg qd; for inhibition of Hep3B tumor growth (dose and time dependence): p.o., 7.5, 15, 30 mg/kg/day
Protocol: The Hep-3B tumor cell line was purchased from American Type Culture Collection (ATCC™HB-8064, human hepatocellular carcinoma cells). The culture medium contained DMEM, 90%; Fetal Bovine Serum, 10% and 1% penicillin-streptomycin. The tumor cells were incubated in an atmosphere containing 5% CO2 at 37° C.
Balb/c Nude mice used in this study were male, 4-6 weeks age, weighing 18-20 g and provided by National Animal Center. All animals were housed in Individually Ventilated Cages Racks (IVC Racks, 36 Mini Isolator system) under Specific Pathogen-Free (SPF) condition throughout the experiment. Each cage (in cm, 26.7 length×20.7 width×14.0 height) was sterilized with autoclave and contained 8 mice, and then the animals were maintained in a hygienic environment under controlled temperature (20-24° C.) and humidity (40%-70%) with 12 hour light/dark cycle. The animals were given free access to sterilized lab chow and sterilized distilled water ad libilum. All aspects of this work, i.e., housing, experimentation and disposal of animals were performed in general accordance with the Guide for the Care and Use of Laboratory Animals (National Academy Press, Washington, D.C., 1996).
(§3) In the xenotraft tumor model of human hepatocellular carcinoma cell lines (Hep-3B, ATCC HB-8064) in male Balb/c Nude mice, the compounds 49 at doses at 7.5, 15 and 30 mg/kg (i.v. or p.o., bid) was administered five days per week for four consecutive weeks by p.o, or i.v. and ceased at Day 28. The compounds 52 at doses at 7.5, 15 and 30 mg/kg (i.v. or p.o., qd) was administered five days per week for four consecutive weeks and ceased at Day 28. The tumor size, body weight was monitored and recorded for 28 days. Human hepatocellular carcinoma cells (HEP-3B ATCC HB-8064) with 2×10^6 cells in 0.1 ml were injected subcutaneously into the right flank of the mice. When the tumor growth reached >100 mm^3 in volume (assumed as day 0), the tumor-bearing animals were assigned into several groups (8 animals in each group) for study.
(§4) The body weight and tumor size were measured and recorded every 7 days during the experimental periods of 28 days. Tumor volume (mm^3) was estimated according to the formula of length×[…]×0.5 in mm^3. Tumor growth inhibition was calculated as T/C (treatment/control) by the following formula: T/C=(Tn−T0)/(Cn−C0)×100% (T0: Tumor volume of treated group in Day 0; Tn: Tumor volume of treated group in Day n; C0: Tumor volume of control group in Day 0; Cn: Tumor volume of control group in Day n).
The Hep-3B tumor cell line was purchased from American Type Culture Collection (ATCC HB-8064, human hepatocellular carcinoma cells). A culture medium of 90% DMEM, 10% Fetal Bovine Serum, supplemented with 1% penicillin-streptomycin, was used. The tumor cells were incubated in an atmosphere containing 5% CO2 at 37° C.
Balb/c Nude mice used in this stud were male, 4-6 weeks age, weighing 18-20 g and provided by National Animal Center. All animals were housed in individually ventilated cages racks (IVC Racks, 36 Mini Isolator system) under specific pathogen-free (SPF) conditions throughout the experiment. Each cage (in cm, 26.7 length×20.7 width×14.0 height) was sterilized with autoclave and contained eight mice. The animals were maintained in a hygienic environment under controlled temperature (20-24° C.) and humidity (40% -70%) with a 12 hour light/dark cycle. The animals were given free access to sterilized lab chow and sterilized distilled water ad libitum. All aspects of this work, i.e., housing, experimentation and disposal of animals, were performed in general accordance with the Guide for the Care and Use of Laboratory Animals (National Academy Press, Washington, D.C., 1996). […]

[3] = Body weight monitoring in Hep3B xenograft nude mice; assay type: in vivo, Balb/c Nude mice; conditions: during the course of antitumor evaluation (28 days)
Protocol: as §3, §4
In the xenograft tumor model of human hepatocellular carcinoma cell lines (Hep-3B, ATCC HB-8064) in male Balb/c Nude mice, compound 147 prepared in 9% (w/v) NaHCO3 solution at doses of 7.5, 15 and 30 mg/kg -i.v.or p.o., qd) was administered five days per week for four consecutive weeks and ceased at Day 28. The tumor size and body weight were monitored and recorded for 28 days. Human hepatocellular carcinoma cells (HEP-3,ATCC HB-8064) with 2 ×10^6 cells in 0.1 mL were injected subcutaneously into the right flank of the mice. […]
The body weight and tumor size were measured and recorded every seven days during the experiment periods of 28 days. […]

Kb-VIN = assay: MTT assay, Kb-VIN cells; assay type: cell-based; conditions: Homo sapiens, KBVIN, Table 5
Protocol: as §1, with “assays.” for “assays.^21,22”, “HCT-116, A549,” for “HCT-116,”, “KB, Kb-VIN” for “H460, Detroit 551”, “DU145” for “HT29/FuR”

DU145 = assay: MTT assay, DU145 cells; assay type: cell-based; conditions: Homo sapiens, DU-145, Table 5
Protocol: as §1, with “assays.” for “assays.^21,22”, “HCT-116, A549,” for “HCT-116,”, “KB, Kb-VIN” for “H460, Detroit 551”, “DU145” for “HT29/FuR”

KB = assay: MTT assay, KB cells; assay type: cell-based; conditions: Homo sapiens, Table 5
Protocol: as §1, with “assays.” for “assays.^21,22”, “HCT-116, A549,” for “HCT-116,”, “KB, Kb-VIN” for “H460, Detroit 551”, “DU145” for “HT29/FuR”

A549 = assay: MTT assay, A549 cells; assay type: cell-based; conditions: Homo sapiens, Table 5
Protocol: as §1, with “assays.” for “assays.^21,22”, “HCT-116, A549,” for “HCT-116,”, “KB, Kb-VIN” for “H460, Detroit 551”, “DU145” for “HT29/FuR”

[4] = previous report; cited from earlier work
MES-SA = assay: MTT assay, MES-SA cells; assay type: cell-based; conditions: Homo sapiens, 48 hrs
Protocol: as §2

MES-SA/Dx5 = assay: MTT assay, MES-SA/Dx5 cells; assay type: cell-based, human; conditions: for IC50: Homo sapiens, MES-SA/Dx5, 48 hrs; for Ratio Of SA/Dx5: IC50 MES-SA/Dx5 over IC50 MES-SA
Protocol: as §2

SMILES: O=c1cc(-c2cccc(OP(=O)(O)O)c2)[nH]c2ccc(N3CCCC3)cc12 [Compound 147, 3-(4-Oxo-6-(pyrrolidin-1-yl)-1,4-dihydroquinolin-2-yl)phenyl dihydrogen phosphate]
- Hep3B tumor growth suppression compared with doxorubicin [2]: exceed that of 10 mg/kg doxorubicin
- weight of Hep3B tumor relative to control ([2]; 30 mg/kg p.o., % of that of the control): 26.3%
- antitumor activity by i.v. route compared with p.o. route [2]: slightly greater activity
- inhibition of Hep3B tumor growth (dose and time dependence) [2]: dose- and time-dependent inhibition
- body weight changes [3]: no significant body weight changes

SMILES: COc1ccc2nc(-c3cccc(F)c3)cc(OP(=O)(O)O)c2c1OP(=O)(O)O [Compound 49, 2-(3-Fluorophenyl)-6-methoxyquinoline-4,5-diyl bis(dihydrogen phosphate)]
- antitumor activity compared with doxorubicin ([2]; 7.5 mg/kg i.v. or p.o., bid, doxorubicin 5 mg/kg i.v. qd, 10 mg/kg p.o. qd): exceeded that of doxorubicin
- antitumor activity (dose and time dependence) ([2]; 7.5, 15 and 30 mg/kg, i.v. or p.o., bid, five days per week for four weeks): dose- and time-dependent manner
- body weight changes [3]: no significant body weight changes

SMILES: COc1ccc2[nH]c(-c3cccc(F)c3)cc(=O)c2c1OP(=O)(O)O [Compound 52, 2-(3-Fluorophenyl)-6-methoxy-4-oxo-1,4-dihydroquinolin-5-yl dihydrogen phosphate]
- Hep3B tumor growth suppression compared with doxorubicin [2]: Significant tumor growth suppression
- tumor suppression ([2]; 30 mg/kg/day oral dosing): Near complete tumor suppression
- antitumor activity by i.v. route compared with p.o. route [2]: slight better antitumor activity
- inhibition of Hep3B tumor growth (dose and time dependence) [2]: dose- and time-dependent inhibition
- body weight changes [3]: no significant body weight changes

SMILES: O=P(O)(O)Oc1cc(-c2ccccc2F)nc2cc3c(cc12)OCO3 [CHM-2133-P]
- bio-conversion following administration [4]: rapid bio-conversion into its active molecule CHM-2133
- antitumor activity in vivo (earlier work) [1]: excellent antitumor activity

SMILES: CN(C)c1ccc2c(c1)C(=O)CC(c1cccc(O)c1)=N2 [Compound 139, 2-(3-Hydroxyphenyl)-6-dimethylaminoquinolin-4-one]
- IC50 (HL-60; Table 4, B-3 series, 48 hrs): 60 nM
- IC50 (Detroit 551; Homo sapiens, Table 4, B-3 series, 48 hrs): 10000 nM
- IC50 (MES-SA; Table 4, B-3 series): 931 nM
- IC50 (Hep3B; Table 4, B-3 series, 48 hrs): 1000 nM
- IC50 (MES-SA/Dx5; Table 4, B-3 series): 852 nM
- Ratio Of SA/Dx5 (MES-SA/Dx5; Table 4, B-3 series): 0.92
- melting point: 342 to 344 °C
- IC50 (H460; Table 4, B-3 series, 48 hrs): 6200 nM

SMILES: COc1cccc(C2=Nc3ccc(N4CCCC4)cc3C(=O)C2)c1OC [Compound 127, 2-(2,3-Dimethoxyphenyl)-6-pyrrolidinoquinolin-4-one]
- IC50 (HL-60; Table 3, B-2 series, 48 hrs): 530 nM
- IC50 (Detroit 551; Homo sapiens, Table 3, B-2 series, 48 hrs): > 20000 nM
- IC50 (MES-SA; Table 3, B-2 series): 802 nM
- IC50 (Hep3B; Table 3, B-2 series, 48 hrs): 1200 nM
- IC50 (MES-SA/Dx5; Table 3, B-2 series): 1710 nM
- Ratio Of SA/Dx5 (MES-SA/Dx5; Table 3, B-2 series): 2.13
- melting point: 258 to 260 °C
- IC50 (H460; Table 3, B-2 series, 48 hrs): 1780 nM

The next lines start with results.

- IC50 (HL-60; Table 1, 48 h, MTT): 80 nM
- IC50 (HCT116; Table 1, 48 h): 150 nM
- IC50 (Hep3B; Table 1, 48 h, MTT): 130 nM
- IC50 (H460; Table 1, 48 h, MTT): 140 nM
SMILES: O=c1cc(-c2ccccc2F)[nH]c2cc3c(cc12)OCO3 [CHM-2133, 2-(2-fluorphenyl)-6,7-methylenedioxyquinolin-4-one, reference compound]
- antitumor activity in vivo (earlier work) [1]: excellent antitumor activity
- IC50 (Detroit 551; Table 1, 48 h, MTT, normal human cell): 8200 nM

- IC50 (HL-60; Table 5, MTT): 70 nM
- IC50 (HCT116; Table 5): 70 nM
- IC50 (Hep3B; Table 5, MTT): 70 nM
- IC50 (Kb-VIN): 190 nM
- IC50 (DU145): 130 nM
- IC50 (KB): 130 nM
- IC50 (A549): 130 nM
SMILES: O=c1cc(-c2cccc3ccccc23)[nH]c2cc3c(cc12)OCO3 [Compound 151, 2-(1-Naphthalenyl)-6,7-methylenedioxyquinolin-4-one]

- IC50 (HL-60; Table 5, MTT): 30 nM
- IC50 (HCT116; Table 5): 50 nM
- IC50 (Hep3B; Table 5, MTT): 90 nM
- IC50 (Kb-VIN): 590 nM
- IC50 (DU145): 1870 nM
- IC50 (KB): 1050 nM
- IC50 (A549): 2980 nM
SMILES: O=c1cc(-c2coc3ccccc23)[nH]c2cc3c(cc12)OCO3 [Compound 156, 2-(3-Benzo[b]furyl)-6,7-methylenedioxyquinolin-4-one]
